Data from PubChem BioAssay AID192 (DTP/NCI, 2004).
“And” between values parts separate entries of the source, which are not always exact repeats. Equal values may be shown once. Inconclusive results and toxic doses are left out.

System: BDF1 mice, B16 melanoma ip, median survival T/C
Assay: NCI In Vivo Anticancer Drug Screen. Data for tumor model B16 Melanoma (intraperitoneal) in B6D2F1 (BDF1) mice
Details: endpoint: median survival time, higher = longer survival
Procedure, shortened: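 Antitumor activity is assessed in mice bearing a transplanted tumor, with survival or tumor size compared against vehicle-dosed controls and expressed as T/C.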

[1] = dose: 25.0 mg/kg/injection, schedule: Q01DX009 (ip), vehicle: Klucel (hydroxypropylcellulose) (HPC)
[2] = dose: 50.0 mg/kg/injection, schedule: Q01DX009 (ip), vehicle: Klucel (hydroxypropylcellulose) (HPC)
[3] = dose: 100.0 mg/kg/injection, schedule: Q01DX009 (ip), vehicle: Klucel (hydroxypropylcellulose) (HPC)
[4] = dose: 12.5 mg/kg/injection, schedule: Q01DX009 (ip), vehicle: Klucel (hydroxypropylcellulose) (HPC)
[5] = dose: 6.25 mg/kg/injection, schedule: Q01DX009 (ip), vehicle: saline
[6] = dose: 12.5 mg/kg/injection, schedule: Q01DX009 (ip), vehicle: saline
[7] = dose: 4.0 mg/kg/injection, schedule: Q01DX009 (ip), vehicle: Klucel (hydroxypropylcellulose) (HPC)
[8] = dose: 8.0 mg/kg/injection, schedule: Q01DX009 (ip), vehicle: Klucel (hydroxypropylcellulose) (HPC)

CCNCCC#N
T/C (dose: 80.0 mg/kg/injection, schedule: Q01DX009 (ip), vehicle: saline): 113 % of control
T/C (dose: 160.0 mg/kg/injection, schedule: Q01DX009 (ip), vehicle: saline): 119 % of control
T/C (dose: 320.0 mg/kg/injection, schedule: Q01DX009 (ip), vehicle: saline): 105 % of control

C[NH-].C[NH-].O=C(O)CC(=O)O.[Pt+2]
T/C (dose: 50.0 mg/kg/injection, schedule: Q04DX003 (ip), vehicle: saline): 108 % of control
T/C (dose: 100.0 mg/kg/injection, schedule: Q04DX003 (ip), vehicle: saline): 162 % of control
T/C (dose: 200.0 mg/kg/injection, schedule: Q04DX003 (ip), vehicle: saline): 165 % of control

C=CCOP(=O)(OCC=C)OCC=C
T/C [1]: 96 % of control
T/C [2]: 100 % of control

CC1CCCN(C)C1 (centres undefined)
T/C [2]: 117 % of control
T/C [3]: 120 % of control

O=C(Nc1cc(C(F)(F)F)ccc1Cl)c1cccc(C(=O)Nc2cc(C(F)(F)F)ccc2Cl)c1
T/C [4]: 101 % of control
T/C [1]: 101 % of control
T/C [2]: 101 % of control

CCCCOP(=O)(CCl)OCCCC
T/C [2]: 97 % of control
T/C [3]: 86 % of control

Nc1c(Br)cc2c(c1Br)Cc1cc(Cl)ccc1-2
T/C (dose: 6.25 mg/kg/injection, schedule: Q01DX009 (ip), vehicle: other): 108 % of control
T/C (dose: 12.5 mg/kg/injection, schedule: Q01DX009 (ip), vehicle: other): 96 % of control
T/C (dose: 25.0 mg/kg/injection, schedule: Q01DX009 (ip), vehicle: other): 96 % of control
T/C [2]: 94 % of control
T/C (dose: 50.0 mg/kg/injection, schedule: Q01DX009 (ip), vehicle: other): 89 % of control
T/C [3]: 107 % of control
T/C (dose: 100.0 mg/kg/injection, schedule: Q04DX003 (ip), vehicle: other): 94 % of control
T/C (dose: 200.0 mg/kg/injection, schedule: Q04DX003 (ip), vehicle: other): 86 % of control

O=C(O)C1CCCCC1C(=O)Nc1cccc(C(F)(F)F)c1 (centres undefined)
T/C [4]: 114 % of control
T/C [1]: 119 % of control
T/C [2]: 113 % of control

Cc1c2c(ccc3ccccc32)c[n+]2ccccc12
T/C (dose: 1.56 mg/kg/injection, schedule: Q01DX009 (ip), vehicle: suspension in saline): 98 % of control
T/C (dose: 3.12 mg/kg/injection, schedule: Q01DX009 (ip), vehicle: suspension in saline): 101 % of control
T/C (dose: 6.25 mg/kg/injection, schedule: Q01DX009 (ip), vehicle: suspension in saline): 106 % of control
T/C (dose: 12.5 mg/kg/injection, schedule: Q01DX009 (ip), vehicle: suspension in saline): 103 % of control

O=C(NCCCCCCNC(=O)N1CC1)N1CC1
T/C (dose: 0.3 mg/kg/injection, schedule: Q01DX009 (ip), vehicle: saline): 101 % of control
T/C (dose: 0.6 mg/kg/injection, schedule: Q01DX009 (ip), vehicle: saline): 96 % of control
T/C (dose: 1.2 mg/kg/injection, schedule: Q01DX009 (ip), vehicle: saline): 103 % of control
T/C (dose: 2.4 mg/kg/injection, schedule: Q01DX009 (ip), vehicle: saline): 92 % of control
T/C (dose: 4.8 mg/kg/injection, schedule: Q01DX009 (ip), vehicle: saline): 103 % of control

Cc1n(CC(C)C)c2c([n+]1C)C(=O)c1ccccc1C2=O
T/C (dose: 1.0 mg/kg/injection, schedule: Q01DX009 (ip), vehicle: saline): 90 % of control
T/C (dose: 2.0 mg/kg/injection, schedule: Q01DX009 (ip), vehicle: saline): 87 % of control

c1ccc(CSSCc2ccccc2)cc1
T/C [3]: 113 % of control
T/C (dose: 200.0 mg/kg/injection, schedule: Q01DX009 (ip), vehicle: Klucel (hydroxypropylcellulose) (HPC)): 114 % of control
T/C (dose: 400.0 mg/kg/injection, schedule: Q01DX009 (ip), vehicle: Klucel (hydroxypropylcellulose) (HPC)): 108 % of control

CC1CN=C(c2ccc(NC(=O)c3ccc(C(=O)Nc4ccc(C5=NCC(C)N5)cc4)cc3)cc2)N1 (centres undefined)
T/C [4]: 118 % of control
T/C [1]: 107 % of control

BrCCC[P+](c1ccccc1)(c1ccccc1)c1ccccc1
T/C (dose: 3.13 mg/kg/injection, schedule: Q01DX009 (ip), vehicle: Klucel (hydroxypropylcellulose) (HPC)): 106 % of control
T/C (dose: 3.13 mg/kg/injection, schedule: Q01DX009 (ip), vehicle: saline): 105 % of control
T/C (dose: 3.13 mg/kg/injection, schedule: Q04DX003 (ip), vehicle: saline): 89 % of control
T/C (dose: 6.25 mg/kg/injection, schedule: Q01DX009 (ip), vehicle: Klucel (hydroxypropylcellulose) (HPC)): 103 % of control
T/C [5]: 100 % of control
T/C (dose: 6.25 mg/kg/injection, schedule: Q04DX003 (ip), vehicle: saline): 89 % of control
T/C [4]: 106 % of control
T/C [6]: 107 % of control
T/C (dose: 12.5 mg/kg/injection, schedule: Q04DX003 (ip), vehicle: saline): 89 % of control
T/C [1]: 90 % of control
T/C (dose: 25.0 mg/kg/injection, schedule: Q04DX003 (ip), vehicle: Klucel (hydroxypropylcellulose) (HPC)): 90 % of control

CCN1/C(=C/C=C/C=C\C=C\c2sc3ccc4ccccc4c3[n+]2CC)Sc2ccc3ccccc3c21
T/C (dose: 2.5 mg/kg/injection, schedule: Q01DX009 (ip), vehicle: saline with Tween-80): 87 % of control
T/C (dose: 10.0 mg/kg/injection, schedule: Q01DX009 (ip), vehicle: saline with Tween-80): 115 % of control
T/C (dose: 20.0 mg/kg/injection, schedule: Q01DX009 (ip), vehicle: saline with Tween-80): 96 % of control

C=C(NC(=O)C(=C)NC(=O)c1csc(C2=NC3c4csc(n4)C4NC(=O)c5csc(n5)C(C(C)(O)C(C)O)NC(=O)C5CSC(=N5)/C(=C/C)NC(=O)C(C(C)O)NC(=O)c5csc(n5)C3(CC2)NC(=O)C(C)NC(=O)C(=C)NC(=O)C(=C)NC(=O)C(C(C)C)NC2C=Cc3c(C(C)O)cc(nc3C2O)C(=O)OC4C)n1)C(N)=O (centres undefined)
T/C (dose: 3.12 mg/kg/injection, schedule: Q01DX009 (ip), vehicle: saline): 114 % of control
T/C [5]: 104 % of control and 117 % of control
T/C [6]: 109 % of control and 114 % of control
T/C (dose: 25.0 mg/kg/injection, schedule: Q01DX009 (ip), vehicle: saline): 110 % of control and 120 % of control
T/C (dose: 50.0 mg/kg/injection, schedule: Q01DX009 (ip), vehicle: saline): 119 % of control and 120 % of control
T/C (dose: 100.0 mg/kg/injection, schedule: Q01DX009 (ip), vehicle: saline): 123 % of control

CC(=O)Nc1ccn(C2OC(COC(C)=O)C(OC(C)=O)C2OC(C)=O)c(=O)n1 (centres undefined)
T/C (dose: 150.0 mg/kg/injection, schedule: Q01DX009 (ip), vehicle: saline with Tween-80): 103 % of control
T/C (dose: 300.0 mg/kg/injection, schedule: Q01DX009 (ip), vehicle: saline with Tween-80): 114 % of control
T/C (dose: 600.0 mg/kg/injection, schedule: Q01DX009 (ip), vehicle: saline with Tween-80): 119 % of control
T/C (dose: 1200.0 mg/kg/injection, schedule: Q01DX009 (ip), vehicle: saline with Tween-80): 123 % of control

O=C(O)C(=O)O.[U]
T/C [7]: 88 % of control
T/C [8]: 93 % of control
T/C (dose: 16.0 mg/kg/injection, schedule: Q01DX009 (ip), vehicle: Klucel (hydroxypropylcellulose) (HPC)): 87 % of control

Clc1ccc2nc(CI)c(CI)nc2c1
T/C (dose: 0.19 mg/kg/injection, schedule: Q01DX009 (ip), vehicle: saline with Tween-80): 90 % of control
T/C (dose: 0.39 mg/kg/injection, schedule: Q01DX009 (ip), vehicle: saline with Tween-80): 90 % of control
T/C (dose: 0.78 mg/kg/injection, schedule: Q01DX009 (ip), vehicle: saline with Tween-80): 100 % of control
T/C (dose: 1.56 mg/kg/injection, schedule: Q01DX009 (ip), vehicle: saline with Tween-80): 104 % of control
T/C (dose: 6.25 mg/kg/injection, schedule: Q01DX009 (ip), vehicle: saline with Tween-80): 102 % of control
T/C (dose: 12.5 mg/kg/injection, schedule: Q01DX009 (ip), vehicle: saline with Tween-80): 97 % of control
T/C (dose: 25.0 mg/kg/injection, schedule: Q01DX009 (ip), vehicle: saline with Tween-80): 89 % of control and 97 % of control
T/C (dose: 25.0 mg/kg/injection, schedule: Q04DX003 (ip), vehicle: saline with Tween-80): 100 % of control
T/C (dose: 50.0 mg/kg/injection, schedule: Q04DX003 (ip), vehicle: saline with Tween-80): 100 % of control

Cc1cc2c(C(C)C)c(O)c(O)c(C=O)c2c(O)c1-c1c(C)cc2c(C(C)C)c(O)c(O)c(C=O)c2c1O
T/C (dose: 0.25 mg/kg/injection, schedule: Q01DX009 (ip), vehicle: Klucel (hydroxypropylcellulose) (HPC)): 93 % of control
T/C (dose: 0.5 mg/kg/injection, schedule: Q01DX009 (ip), vehicle: Klucel (hydroxypropylcellulose) (HPC)): 91 % of control
T/C (dose: 1.0 mg/kg/injection, schedule: Q01DX009 (ip), vehicle: Klucel (hydroxypropylcellulose) (HPC)): 96 % of control
T/C (dose: 2.0 mg/kg/injection, schedule: Q01DX009 (ip), vehicle: Klucel (hydroxypropylcellulose) (HPC)): 104 % of control
T/C [7]: 91 % of control
T/C [8]: 91 % of control
